From ChEMBL document CHEMBL5260813, “An overview on the recent developments of 1,2,4-triazine derivatives as anticancer compounds” (Eur J Med Chem, 2017)
In brackets after ≈: the same amount, converted by molar mass.

What was measured:
[1] = biological target: Cyclin-dependent kinase 2/cyclin E (Homo sapiens, UniProt P24941); assay: Inhibition of CDK2/cyclin E (unknown origin); type: protein-complex assay
[2] = system: K562; assay: Antiproliferative activity against human K562 cells assessed as inhibition of cell growth measured after 72 hrs by fluorescence based assay; type: functional; conditions: K562, 72 h
[3] = system: MCF7; assay: Antiproliferative activity against human MCF7 cells assessed as inhibition of cell growth measured after 72 hrs by fluorescence based assay; type: functional; conditions: MCF7, 72 h
[4] = system: HT-29; assay: Antiproliferative activity against human HT-29 cells assessed as inhibition of cell growth under hypoxia condition by SRB assay; type: functional, cell-based
[5] = system: HT-29; assay: Antiproliferative activity against human HT-29 cells assessed as inhibition of cell growth under normoxia condition by SRB assay; type: functional, cell-based
[6] = system: SCC-7; assay: Anticlonogenic activity against mouse SCC-7 cells assessed as inhibition of colony formation under hypoxic condition by clonogenic survival assay; type: functional
[7] = system: SCC-7; assay: Anticlonogenic activity against mouse SCC-7 cells assessed as inhibition of colony formation under aerobic condition by clonogenic survival assay; type: functional
[8] = biological target: T1, Tyrosine-protein kinase JAK3 (Homo sapiens, UniProt P52333); assay: Inhibition of JAK3 (unknown origin)
T1 sequence (P52333 whole entry): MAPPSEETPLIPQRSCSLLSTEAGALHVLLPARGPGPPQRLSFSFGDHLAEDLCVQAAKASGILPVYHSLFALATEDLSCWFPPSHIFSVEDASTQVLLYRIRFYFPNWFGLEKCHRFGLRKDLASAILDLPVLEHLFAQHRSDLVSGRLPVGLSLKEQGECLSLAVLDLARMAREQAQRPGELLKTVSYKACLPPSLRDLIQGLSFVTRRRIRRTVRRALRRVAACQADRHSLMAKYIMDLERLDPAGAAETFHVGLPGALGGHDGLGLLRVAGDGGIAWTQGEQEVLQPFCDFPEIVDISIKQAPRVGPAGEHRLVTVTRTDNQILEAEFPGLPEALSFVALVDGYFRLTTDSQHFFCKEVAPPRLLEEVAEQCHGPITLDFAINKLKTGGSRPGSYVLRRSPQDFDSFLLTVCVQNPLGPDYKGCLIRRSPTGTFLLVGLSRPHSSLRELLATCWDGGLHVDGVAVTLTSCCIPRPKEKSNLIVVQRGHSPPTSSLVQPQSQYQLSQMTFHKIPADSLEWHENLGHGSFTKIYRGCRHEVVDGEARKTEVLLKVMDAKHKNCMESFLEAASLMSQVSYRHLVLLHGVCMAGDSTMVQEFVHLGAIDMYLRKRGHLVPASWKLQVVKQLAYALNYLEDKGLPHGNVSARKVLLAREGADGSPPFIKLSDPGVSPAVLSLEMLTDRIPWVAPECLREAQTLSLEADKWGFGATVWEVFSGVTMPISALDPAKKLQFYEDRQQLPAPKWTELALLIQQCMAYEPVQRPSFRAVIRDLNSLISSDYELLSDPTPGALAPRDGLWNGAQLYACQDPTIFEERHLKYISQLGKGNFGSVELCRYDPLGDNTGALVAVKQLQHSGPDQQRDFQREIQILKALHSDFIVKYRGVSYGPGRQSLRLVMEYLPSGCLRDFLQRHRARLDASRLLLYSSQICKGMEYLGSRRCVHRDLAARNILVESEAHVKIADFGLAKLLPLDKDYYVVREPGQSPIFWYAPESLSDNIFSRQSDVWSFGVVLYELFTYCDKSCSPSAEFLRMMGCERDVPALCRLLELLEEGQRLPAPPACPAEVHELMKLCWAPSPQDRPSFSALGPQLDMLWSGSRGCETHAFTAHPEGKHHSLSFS

[9] = biological target: Tyrosine-protein kinase JAK2 (Homo sapiens, UniProt O60674); assay: Inhibition of JAK2 (unknown origin)
Chain of Tyrosine-protein kinase JAK2 (O60674 whole entry): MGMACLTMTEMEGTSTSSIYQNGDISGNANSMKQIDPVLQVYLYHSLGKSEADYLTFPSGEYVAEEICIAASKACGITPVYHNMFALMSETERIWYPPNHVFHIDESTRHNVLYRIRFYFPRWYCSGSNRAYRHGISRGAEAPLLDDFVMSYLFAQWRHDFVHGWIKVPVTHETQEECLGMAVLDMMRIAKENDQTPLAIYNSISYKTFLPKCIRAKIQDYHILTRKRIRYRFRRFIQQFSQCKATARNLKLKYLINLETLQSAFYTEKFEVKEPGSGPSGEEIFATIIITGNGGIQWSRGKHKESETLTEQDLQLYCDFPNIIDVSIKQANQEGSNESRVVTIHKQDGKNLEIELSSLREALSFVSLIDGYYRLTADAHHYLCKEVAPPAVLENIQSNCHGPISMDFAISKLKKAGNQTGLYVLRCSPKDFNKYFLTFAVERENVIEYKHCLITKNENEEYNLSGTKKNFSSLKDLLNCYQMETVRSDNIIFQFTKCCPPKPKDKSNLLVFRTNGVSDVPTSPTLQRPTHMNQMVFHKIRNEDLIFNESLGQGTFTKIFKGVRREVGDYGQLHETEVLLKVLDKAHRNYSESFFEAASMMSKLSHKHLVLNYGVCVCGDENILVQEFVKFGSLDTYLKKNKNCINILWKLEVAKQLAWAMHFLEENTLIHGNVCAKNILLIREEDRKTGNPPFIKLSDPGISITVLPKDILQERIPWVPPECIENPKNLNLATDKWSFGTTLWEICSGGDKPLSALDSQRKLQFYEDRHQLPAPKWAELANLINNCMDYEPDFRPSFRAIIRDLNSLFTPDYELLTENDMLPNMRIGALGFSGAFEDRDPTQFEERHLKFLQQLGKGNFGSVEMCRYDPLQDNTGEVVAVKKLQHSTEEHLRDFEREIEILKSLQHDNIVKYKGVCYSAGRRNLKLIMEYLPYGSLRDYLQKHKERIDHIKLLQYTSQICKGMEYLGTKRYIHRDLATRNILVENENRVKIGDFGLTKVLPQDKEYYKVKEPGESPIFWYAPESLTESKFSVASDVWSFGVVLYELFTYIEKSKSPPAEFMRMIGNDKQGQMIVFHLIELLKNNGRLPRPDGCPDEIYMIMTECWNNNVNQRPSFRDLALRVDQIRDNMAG

[10] = biological target: Cyclin-dependent kinase 2/cyclin E1 (Homo sapiens, UniProt P24941); assay: Inhibition of CDK2/cyclin E1 (unknown origin) expressed in Sf9 cells
[11] = system: MCF7; assay: Antiproliferative activity against human MCF7 cells assessed as inhibition of cell growth; type: functional, cell-based
[12] = system: HCT-116; assay: Antiproliferative activity against human HCT-116 cells assessed as inhibition of cell growth; type: functional, cell-based

Cc1n[nH]c(=S)n(-c2nnc(-c3ccc(F)cc3)c(-c3ccc(F)cc3)n2)c1=O
IC50 [1]: 9.75 µM

NNc1nc(=O)n(-c2ccccc2)nc1-c1ccccc1O
IC50 [2]: 3.5 µM
IC50 [3]: 3.5 µM

Cc1cccc2nc3cccc(C(=O)NCCCN(C)CCCNc4n[n+]([O-])c5ccccc5[n+]4[O-])c3nc12
IC50 [4]: 0.016 µM
IC50 [5]: 0.6 µM
C10 [6]: 0.18 µM
C10 [7]: 6.4 µM

CN(CCNC(=O)c1cccc2cc3ccccc3nc12)CCNc1n[n+]([O-])c2ccccc2[n+]1[O-]
IC50 [4]: 0.016 µM
IC50 [5]: 0.6 µM
C10 [6]: 0.18 µM
C10 [7]: 6.4 µM

CC(C)(C)CNC(=O)C(C)(C)Nc1cnnc(-c2c[nH]c3ncc(F)cc23)n1
IC50 [8]: ≤ 0.01 µM
IC50 [9]: ≤ 0.01 µM

Oc1ccccc1-n1nc(-c2cc(O)c(O)c(O)c2)c2nc(-c3ccccc3)nnc21
IC50 [10]: 15.1 µM

Oc1cccc(-n2nc(-c3cc(O)c(O)c(O)c3)c3nc(-c4ccccc4)nnc32)c1
IC50 [10]: 5.2 µM

NC(CCCCNc1nc(=O)n(-c2ccccc2)nc1-c1ccccc1O)C(=O)O (stereo not drawn)
IC50 [2]: 3.5 µM
IC50 [3]: 3.5 µM

O=c1nc(NNc2ccccc2)c(-c2ccccc2O)nn1-c1ccccc1
IC50 [2]: 3.5 µM
IC50 [3]: 3.5 µM

COc1cc(Cc2nc(-c3ccc(Cl)cc3)nn3c(=S)[nH]nc23)cc(OC)c1OC
IC50 [11]: 0.74 µg/mL (≈ 1.67 µM)
IC50 [12]: 0.74 µg/mL

COc1cc(-c2csc3nnc(-c4ccc(Cl)cc4)nc23)cc(OC)c1OC
IC50 [11]: 0.74 µg/mL (≈ 1.79 µM)
IC50 [12]: 0.74 µg/mL

CCN(CC)c1nc(=O)n(-c2ccccc2)nc1-c1ccccc1O
IC50 [2]: 3.5 µM
IC50 [3]: 3.5 µM

O=C(NCCOCCNc1n[n+]([O-])c2ccccc2[n+]1[O-])c1cccc2cc3ccccc3nc12
IC50 [4]: 0.016 µM
IC50 [5]: 0.6 µM
C10 [6]: 0.18 µM
C10 [7]: 6.4 µM

O=C(NCCCNCCCNc1n[n+]([O-])c2ccccc2[n+]1[O-])c1cccc2cc3ccccc3nc12
IC50 [4]: 0.016 µM
IC50 [5]: 0.6 µM
C10 [6]: 0.18 µM
C10 [7]: 6.4 µM

COc1cc(Cc2nc(-c3ccccc3)nn3cnnc23)cc(OC)c1OC
IC50 [11]: 0.74 µg/mL (≈ 1.96 µM)
IC50 [12]: 0.74 µg/mL

O=c1nc(NC2CCCCC2)c(-c2ccccc2O)nn1-c1ccccc1
IC50 [2]: 3.5 µM
IC50 [3]: 3.5 µM

CNc1nc(=O)n(-c2ccccc2)nc1-c1ccccc1O
IC50 [2]: 3.5 µM
IC50 [3]: 3.5 µM

O=c1nc(N2CCCCC2)c(-c2ccccc2O)nn1-c1ccccc1
IC50 [2]: 3.5 µM
IC50 [3]: 3.5 µM

CC(C)C(Nc1cnnc(-c2c[nH]c3ncc(C#N)cc23)n1)C(=O)NCC(C)(C)C (stereo not drawn)
IC50 [8]: ≤ 0.01 µM
IC50 [9]: ≤ 0.01 µM

O=C1NC(SSC2NN=C(c3cc(F)ccc3NC(=O)c3ccc(F)cc3)C(=O)N2)NN=C1c1cc(F)ccc1NC(=O)c1ccc(F)cc1 (stereo not drawn)
IC50 [1]: 3.8 µM

O=C(NCCNCCNc1n[n+]([O-])c2ccccc2[n+]1[O-])c1cccc2cc3ccccc3nc12
IC50 [4]: 0.016 µM
IC50 [5]: 0.6 µM
C10 [6]: 0.18 µM
C10 [7]: 6.4 µM

CC(C)C(Nc1cnnc(-c2c[nH]c3ncc(Cl)cc23)n1)C(=O)NCC(C)(C)C (stereo not drawn)
IC50 [8]: ≤ 0.01 µM
IC50 [9]: ≤ 0.01 µM

CN(CCCNC(=O)c1cccc2ccc(-c3ccncc3)nc12)CCCNc1n[n+]([O-])c2ccccc2[n+]1[O-]
IC50 [4]: 0.016 µM
IC50 [5]: 0.6 µM
C10 [6]: 0.18 µM
C10 [7]: 6.4 µM

CN(CCCNC(=O)c1cccc2cccnc12)CCCNc1n[n+]([O-])c2ccccc2[n+]1[O-]
IC50 [4]: 0.016 µM
IC50 [5]: 0.6 µM
C10 [6]: 0.18 µM
C10 [7]: 6.4 µM

COc1cc(-c2nnc3c(n2)c(-c2cc(O)c(O)c(O)c2)nn3-c2cc(OC)c(OC)c(OC)c2)cc(OC)c1OC
IC50 [10]: 4.5 µM

CC(C)C(Nc1cnnc(-c2c[nH]c3ncc(F)cc23)n1)C(=O)NCC(C)(C)C (stereo not drawn)
IC50 [8]: ≤ 0.01 µM
IC50 [9]: ≤ 0.01 µM

Fc1ccc(-c2nnc(-n3cn[nH]c3=S)nc2-c2ccc(F)cc2)cc1
IC50 [1]: 10.9 µM

CN1CCN(CC(=O)Nc2cc(C(=O)Nc3ncc(-c4ccccc4)nn3)ccc2OC(F)(F)F)CC1
IC50 [12]: 0.016 µM
